How the values were obtained:
[1] = system: ADP induced platelet aggregation; experiment: Inhibition of ADP-induced platelet aggregation (procedure of Born and Cross); assay type: cell-based; details: for inhibition at 10 µg/mL: read-out: Inhibition of Platelet Aggregation 10 ug/ml; for inhibition at 30 µg/mL: read-out: Inhibition of Platelet Aggregation 30 ug/ml
Experimental: Most compounds of Formula I are active as inhibitors of platelet aggregation as shown in Table 1 by the test procedure described in Born, G.R., Cross M.J., J. Physiol., 168, p. 178 (1963).
Also, reported is the percent inhibition of platelet aggregation at 10ug/ml and 30 ug/ml concentrations.

fibroblasts = experiment: Antiproliferative assay (inhibition of cell proliferation, procedure of Pledger et al.); assay type: cell-based; details: for EC50: Fibroblast; for Antiproliferative Assay Data Inhibition (%): percent inhibition at the maximum concentration tested
Description: The compounds of Formula I are active as inhibitors of cell proliferation as shown in Table 1 by the test procedure described in Pledger W.J., Stiles C.D., Antniades H.N., Scher C.D., (Proc. Natl. Acad. Sci (USA) (1977). In addition, various compounds of Formula I are also inhibitors of ADP induced platelet aggregation and are useful in the prevention or treatment of thrombotic diseases and related complications by, for example, inhibition or reversal of platelet aggregation, or platelet adhesion or blood coagulation. […]

| Compound | inhibition at 10 µg/mL [1] | inhibition at 30 µg/mL [1] | EC50 (fibroblasts) | Antiproliferative Assay Data Inhibition (%) (fibroblasts) | antiproliferation or inhibition activity (in words) (fibroblasts) |
| --- | --- | --- | --- | --- | --- |
| CCCCC(Oc1ccc(-c2cc(=O)cc(N3CCOCC3)o2)cc1)c1ccccc1 (stereo not shown) [Compound 11, 2-(4-Morpholinyl)-6-(4-((1-phenylpentyl)oxy)phenyl)-4H-pyran-4-one] | 10% | 10% | 22.9 µM | – | – |
| O=c1cc(CN2CCCCC2)oc(-c2ccc(OCc3ccccc3)cc2)c1 [Compound 13] | 0% | 0% | – | 20% | – |
| CN1CCN(Cc2ccc(-c3cc(=O)cc(N4CCOCC4)o3)cc2)CC1 [Compound 20, 2-(4-((4-methyl-1-piperazinyl)methyl)phenyl)-6-(4-morpholinyl)-4H-pyran-4-one] | 0% | 20% | – | 9% | – |
| O=c1cc(-c2cccc(OCc3ccccc3)c2)oc(N2CCOCC2)c1 [Compound 15, 2-(4-morpholinyl)-6-(3-(phenylmethoxy)phenyl)-4H-pyran-4-one] | 0% | 0% | 9.1 µM | 96% | – |
| Nc1ccc(-c2cc(=O)cc(N3CCOCC3)o2)cc1 [Compound 25, 2-(4-Aminophenyl)-6-(4-morpholinyl)-4H-pyran-4-one] | 45% | 55% | 18.7 µM | – | – |
| O=c1cc(-c2ccc(OCc3cccnc3)cc2)oc(N2CCOCC2)c1 [Compound 5, 2-(4-Morpholinyl)-6-(4-(3-pyridinylmethoxy)phenyl)-4H-pyran-4-one] | 40% | 55% | 11.2 µM | 77% | – |
| O=c1cc(-c2ccc(N3CCCCC3)cc2)oc(N2CCOCC2)c1 [Compound 24, 2-(4-Morpholinyl)-6-4-(1-piperidinyl)phenyl-4H-pyran-4-one] | 10% | 50% | 0.48 µM | – | – |
| O=c1cc(-c2ccc(OCc3ccccc3)cc2)oc(N2CCOCC2)c1 [Compound 2] | 10% | 15% | 6.9 µM | – | – |
| O=c1cc(-c2ccccc2O)oc(N2CCOCC2)c1 [Compound 10, 2-(2-Hydroxyphenyl)-6-(4-morpholinyl)-4H-pyran-4-one] | – | – | 62.2 µM | 34% | – |
| O=c1cc(-c2ccccc2OCc2ccccc2)oc(N2CCOCC2)c1 [Compound 9, 2-(4-Morpholinyl)-6-(2-(phenylmethoxy)phenyl)-4H-pyran-4-one] | 60% | 65% | 11.6 µM | 88% | – |
| O=c1cc(-c2ccccc2)oc(N2CCOCC2)c1 [Compound 3, 2-(4-Morpholinyl)-6-phenyl-4H-pyran-4-one] | 45% | 50% | 28 µM | – | – |
| O=c1cc(CN2CCOCC2)oc(-c2ccc(OCc3ccccc3)cc2)c1 [Compound 12] | 0% | 0% | 41 µM | 36% | – |
| O=c1cc(-c2ccc(CN3CCCCC3CO)cc2)oc(N2CCOCC2)c1 (stereo not shown) [Compound 21, 2-(4-((2-(hydroxymethyl)-1-piperidinyl)methyl)phenyl)-6-(4-morpholinyl)-4H-pyran-4-one] | 10% | 10% | – | 13% | – |
| O=c1cc(-c2ccc(OCCN3CCCCC3)cc2)oc(N2CCOCC2)c1 [Compound 7, 2-(4-Morpholinyl)-6-((4-(2-(1-piperidinyl)ethyl)oxy)phenyl)-4H-pyran-4-one] | 60% | 70% | > 31.2 µM | 30% | – |
| O=c1cc(-c2ccc(F)cc2)oc(N2CCOCC2)c1 [Compound 22, 2-(4-Fluorophenyl)-6-(4-morpholinyl)-4H-pyran-4-one] | 42% | 61% | > 20 µM | 25% | – |
| O=c1cc(-c2ccc(O)cc2)oc(N2CCOCC2)c1 [Compound 1, 2-(4-Hydroxyphenyl)-6-(4-morpholinyl)-4H-pyran-4-one] | 75% | 95% | 29.4 µM | 54% | – |
| O=c1cc(-c2ccc(N3CCCC3)cc2)oc(N2CCOCC2)c1 [Compound 23, 2-(4-Morpholinyl)-6-4-(1-pyrrolidinyl)phenyl-4H-pyran-4-one] | 20% | 50% | 0.25 µM | – | – |
| O=c1cc(-c2ccc(CN3CCCCC3)cc2)oc(N2CCOCC2)c1 [Compound 18, 2-(4-morpholinyl)-6-(4-(1-piperidinylmethyl)phenyl)-4H-pyran-4-one] | 10% | 18% | – | 8% | – |
| O=c1cc(CN2CCOCC2)oc(-c2ccc(O)cc2)c1 [Compound 14, 2-(4-hydroxyphenyl)-6-(4-morpholinylmethyl)-4H-pyran-4-one] | 0% | 0% | – | 0% | no measurable antiproliferation or inhibition activity |
| O=c1cc(-c2ccc(OCc3ccccn3)cc2)oc(N2CCOCC2)c1 [Compound 6, 2-(4-Morpholinyl)-6-(4-(2-pyridinylmethoxy)phenyl)-4H-pyran-one] | 25% | 40% | 14.8 µM | 72% | – |
| O=c1cc(-c2ccc(CN3CCCC3)cc2)oc(N2CCOCC2)c1 [Compound 19, 2-(4-morpholinyl)-6-(4-(1-pyrrolidinylmethyl)phenyl)-4H-pyran-4-one] | 5% | 10% | – | 12% | – |
| CC(C)(C)C(=O)COc1ccc(-c2cc(=O)cc(N3CCOCC3)o2)cc1 [Compound 4, 2-(4-(3,3-Dimethyl-2-oxobutoxy)phenyl)-6-(4-morpholinyl)-4H-pyran-4-one] | 45% | 60% | 9.4 µM | 66% | – |
| O=c1cc(-c2ccc(CO)cc2)oc(N2CCOCC2)c1 [Compound 17, 2-(4-(hydroxymethyl)phenyl)-6-(4-morpholinyl)-4H-pyran-4-one] | 0% | 0% | – | 20% | – |
| O=c1cc(-c2cccc(O)c2)oc(N2CCOCC2)c1 [Compound 16, 2-(3-hydroxyphenyl)-6-(4-morpholinyl)-4H-pyran-4-one] | 5% | 44% | 28.5 µM | 73% | – |
| O=c1cc(-c2ccc(OCc3ccc4ccccc4n3)cc2)oc(N2CCOCC2)c1 [Compound 8, 2-(4-Morpholinyl)-6-(4-(2-quinolinylmethoxy)phenyl)-4H-pyran-4-one] | 35% | 35% | 6.8 µM | – | – |
